This is an account of results in PMC11920571, “Esc peptides and derivatives potentiate the activity of CFTR with gating defects and display antipseudomonal activity in cystic fibrosis-like lung disease” (Cellular and Molecular Life Sciences: CMLS, 2025).

In series [1] the test system is Gram-negative bacterial strains and Staphylococcus aureus. Nature of the series: MIC determination, summary over the strain panel. It counts as cell-based. Particulars: summary of Table 3. Here is the method: Peptides were tested against the Gram-negative Escherichia coli ATCC 25922, Ainetobacter baumannii ATCC 19606, P. aeruginosa ATCC 27853, P. aeruginosa PAO1; and the Gram-positive S. aureus ATCC 25923, MDR#1, MDR#2, MDR#3 and MDR#4. The MIC values were determined as previously reported. Briefly, bacteria were grown at 37 °C in Luria-Bertani broth (LB) until an optical density (OD) of 0.8 was reached (λ=590 nm). Aliquots of bacteria (50 µL) were added to each well of a 96-multiwell plate containing serial dilutions of the tested peptides in Mueller Hinton broth (MH). The final cell concentration was 1x10^6 CFU/ml.

A further series deals with F508del-CFBE41o- cells. Particulars: 20 μM peptide, 24 h, CCK-8, absorbance 450 nm. As for the experimental part:
The Cell Counting Kit 8 (CCK-8) assay was performed as follows to assess cell viability. About 1×10^4 F508del-CFBE41o- cells were seeded in each well of a 96-well plate and incubated at 37 °C and 5% CO2. After 24 h, the medium was replaced by MEM supplemented with 2 mM L-glutamine and containing each peptide at different concentrations. The plate was incubated for 24 h and subsequently 10 μl of CCK-8 reagent were added to each well. After 2 h incubation, the absorbance of each well was measured at 450 nm using a microplate reader (Infinite M200; Tecan, Salzburg, Austria).

The test system of series [2] is P. aeruginosa PAO1. Nature of the series: Murine lung infection model, wild-type littermates. The series is classed as in vivo, mice. Particulars: 0.1 mg/kg (20 μM) i.t. 1 h after i.t. ~3 x 10^6 CFU PAO1, lungs at 24 h, three independent experiments. Here is the method:
(§1) The animal experiments were performed according to a protocol (protocol 23083347) approved by the Institutional Animal Care and Use Committee (IACUC) of the University of Pittsburgh based on the NIH guide for the care and use of laboratory animals. Transgenic mice with expression of the protein-coding region of the mouse Scnn1b (β-ENaC) and driven by rat airway-specific Scgb1a1 (also called the Clara cell secretory protein) gene were previously described and obtained from Dr. Wanda O'Neal from the University of North Carolina at Chapel Hill. β-ENaC mice in C57BL/6 genetic background were maintained in heterozygous conditions and continuously bred with C57BL/6 wild-type mice. Genotyping was performed for all pups to identify their respective genotypes. Mice expressing β-ENaC and their wild-type littermates at the same ages were used for experiments. Seven-week-old female and male mice were anesthetized by isoflurane inhalation and instilled intratracheally with ~3 x 10^6 CFU of P. aeruginosa PAO1 in 50 µl PBS. […] Control mice were given 50 µl of PBS without peptide. After 24 h, lungs were harvested, four right lobes of each mouse lung were homogenised, serial diluted to determine the total lung bacterial burden, according to the published method.

Series [3] concerns P. aeruginosa PAO1. In words: Murine lung infection model, β-ENaC transgenic mice. The series is classed as in vivo. Particulars: for lowering of lung bacterial burden (CFU): 0.1 mg/kg (20 μM) i.t. 1 h after i.t. ~3 x 10^6 CFU PAO1, lungs at 24 h, three independent experiments. As for the experimental part:
as §1

In series [4] the test system is P. aeruginosa PAO1. In words: Co-culture (biotic biofilm) on polarized airway epithelium at ALI. It counts as cell-based. Particulars: 20 μM peptide in PBS for 2 h; PAO1 grown 6 h on polarized homozygous F508del airway epithelium at ALI; vs PBS. Here is the method: This assay was performed using co-cultures of polarized and well-differentiated human bronchial epithelial cells derived from a homozygous F508del patient and P. aeruginosa PAO1 grown to a log phase. Polarized human epithelia in transwell permeable supports and maintained in ALI culture were inoculated with P. aeruginosa PAO1 in 50 µl of cell culture medium (initial inoculum of 200 bacterial cells per ALI culture insert, according to [75]) at the apical side of the supports for 1 h to allow attachment of the bacteria to the epithelium in ALI culture. Unattached bacteria were removed and the supports incubated (37 °C; 5% CO₂) for 5 h prior to the addition of peptide. Each peptide, at 20 μM, diluted in 100 µl PBS, was added for 2 h. After a total of 8 h, the airways surface liquid was collected and aliquots poured on plates for counting. Afterwards, the epithelium was disrupted by adding 150µl Tripsin-EDTA and incubated for 15 min. Subsequently, 200 µl Triton X-100 (0.1%) was added and the supports incubated again for 15 min. Serial dilution and counting of bacterial cells was performed on tryptic soy agar plates to determine the number of CFU.

Series [5] deals with intracellular calcium in null FRT cells. Nature of the series: Microplate reader Fluo-4 Ca2+ assay. It counts as cell-based, rat. Particulars: peptides 10 µM each, UTP 100 µM (Fig. 7) or 10 µM (method), acute addition. Here is the method: Experiments for the evaluation of intracellular calcium mobilization were performed using an automated micro-plate reader (FluoStar) equipped with syringe pumps and optical excitation/emission filters (500/535 nm). FRT cells were cultured until confluence in 96-well microplates. Before starting the assay, cells were washed 3 times with complete PBS (200 μl/wash) and then loaded for 1 h at 37 °C with 5 μM Fluo-4/AM (Thermo Fisher Scientific) in PBS containing 10 mM glucose, 0.5 mM sulfinpyrazone and 1% fetal bovine serum. After loading, cells were washed twice with PBS (120 μl/wash) and incubated for 15 min at 37 °C with 100 μl of PBS plus 10 mM glucose and 0.5 mM sulfinpyrazone. The assay was run on one well at a time by programming the plate reader to acquire the fluorescence emitted from each well every 0.2 s for 120 s. At 2.8 s from the start of reading, the plate reader injected 100 μl of PBS (with glucose and sulfinpyrazone) containing vehicle alone (DMSO), peptides (10 µM each) or UTP (10 µM).

Another series concerns the target T1, G551D-CFTR (Homo sapiens, UniProt P13569, G551D).
T1 construct: expressed in transfected cells
Nature of the series: TEER/transepithelial conductance in G551D-FRT cells. Particulars: 20 µM FSK + 10 µM peptide, 10 min, n ≥ 6. It counts as cell-based. Here is the method: (§2) To evaluate the effect of the peptides on the ion current controlled by CFTR, the transepithelial conductance was measured in epithelia formed by FRT expressing CFTR with different mutation. Cells were seeded on permeable supports (24 Millicell plates PSHT01QR1) and then incubated in their standard culture medium. Cells expressing F508del mutation were pretreated with 1 μM VX-809 to deliver the defective protein to the plasma membrane. After 24 h, the medium was replaced with saline solution containing (in mM): 130 NaCl, 2.7 KCl, 1.5 KH2PO4, 1 CaCl2, 0.5 MgCl2, 10 glucose, 10 Na-Hepes (pH, 7.4), which was added to both apical and basolateral compartments of the permeable supports. Initially, TEER was measured in basal conditions without CFTR activation, using the epithelial voltmeter (MILLICELL ERS-2, Millipore Burlington, MA). Afterwards, 20 μM FSK + 10 μM GEN (as positive control) or FSK+ peptides at the desired concentration were added on the apical side of the epithelium and TEER measurement was performed at 37 °C after 10 min from the addition of the compounds. Finally, TEER was measured after the addition of 30 μM PPQ102 to the apical side of the epithelium, to inhibit CFTR. From the values of TEER obtained before and after CFTR inhibition, the CFTR-dependent TEER was calculated, for each condition. All TEER values were converted to transepithelial conductance (TEEC) using the formula TEEC = 1/TEER [68].

A further series addresses T2, G1349D-CFTR (Homo sapiens, UniProt P13569, G1349D).
T2 construct: expressed in transfected cells
In words: TEER/transepithelial conductance in G1349D-FRT cells. The series is classed as cell-based. Particulars: 20 µM FSK + 10 µM peptide, 10 min, n ≥ 6. As for the experimental part:
as §2

The subject of another series is P. aeruginosa. Particulars: C57BL/6 mice, i.t. instillation at 0.1 mg/Kg (corresponding to 20 μM); cited from earlier work. An excerpt:
In the last years, we identified two antimicrobial peptides (AMPs), Esculentin-1a(1–21)NH2 [Esc(1–21)] and its diastereomer Esc(1–21)−1c (Esc peptides, Table 1), with a strong activity against the free-living and sessile forms of P. aeruginosa and with the ability to accelerate recovery of damaged bronchial epithelium.

Non-standard residues stand in square brackets, D forms with d. Residues, ends and D or L forms follow the SMILES beside them. No end group written: not given here. Aib = CC(C)(N)C(=O)O

T1 sequence (P13569 whole entry G551D): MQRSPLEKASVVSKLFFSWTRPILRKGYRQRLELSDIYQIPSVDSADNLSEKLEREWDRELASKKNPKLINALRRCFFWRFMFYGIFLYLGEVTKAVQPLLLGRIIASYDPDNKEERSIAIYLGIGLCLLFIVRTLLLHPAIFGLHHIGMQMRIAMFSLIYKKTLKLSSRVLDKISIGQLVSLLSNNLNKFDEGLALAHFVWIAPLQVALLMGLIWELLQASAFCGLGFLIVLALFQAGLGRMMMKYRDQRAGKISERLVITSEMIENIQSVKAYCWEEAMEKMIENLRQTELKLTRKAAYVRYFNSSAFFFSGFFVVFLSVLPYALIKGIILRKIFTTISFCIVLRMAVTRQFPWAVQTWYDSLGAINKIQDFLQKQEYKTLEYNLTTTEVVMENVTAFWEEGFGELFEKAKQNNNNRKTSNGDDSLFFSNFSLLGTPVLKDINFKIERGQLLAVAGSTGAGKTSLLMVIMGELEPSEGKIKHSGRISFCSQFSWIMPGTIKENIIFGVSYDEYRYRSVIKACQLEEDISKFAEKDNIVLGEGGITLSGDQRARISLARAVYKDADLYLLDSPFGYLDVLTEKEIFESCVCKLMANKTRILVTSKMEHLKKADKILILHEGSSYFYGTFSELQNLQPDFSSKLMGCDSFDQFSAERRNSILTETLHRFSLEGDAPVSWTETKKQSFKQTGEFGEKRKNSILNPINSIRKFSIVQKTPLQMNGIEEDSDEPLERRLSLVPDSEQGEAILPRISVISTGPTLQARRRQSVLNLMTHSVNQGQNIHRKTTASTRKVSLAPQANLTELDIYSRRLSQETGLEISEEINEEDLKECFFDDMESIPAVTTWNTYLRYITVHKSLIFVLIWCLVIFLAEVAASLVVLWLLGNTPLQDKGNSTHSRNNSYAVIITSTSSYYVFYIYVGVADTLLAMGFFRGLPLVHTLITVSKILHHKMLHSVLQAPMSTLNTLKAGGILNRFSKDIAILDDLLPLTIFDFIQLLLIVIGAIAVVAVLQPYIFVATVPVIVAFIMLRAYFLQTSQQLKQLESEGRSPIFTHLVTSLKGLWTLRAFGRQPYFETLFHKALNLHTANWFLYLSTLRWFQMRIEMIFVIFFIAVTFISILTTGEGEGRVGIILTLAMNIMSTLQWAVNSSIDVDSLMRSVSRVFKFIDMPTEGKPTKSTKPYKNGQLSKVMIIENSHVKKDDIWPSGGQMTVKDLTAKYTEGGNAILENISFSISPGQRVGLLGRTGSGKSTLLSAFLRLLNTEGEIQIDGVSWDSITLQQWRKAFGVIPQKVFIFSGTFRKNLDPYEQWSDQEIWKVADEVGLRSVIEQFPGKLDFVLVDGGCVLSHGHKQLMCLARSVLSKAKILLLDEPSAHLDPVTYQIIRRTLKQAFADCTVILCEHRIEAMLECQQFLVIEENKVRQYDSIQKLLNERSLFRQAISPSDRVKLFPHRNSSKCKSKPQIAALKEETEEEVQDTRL
T2 sequence (P13569 whole entry G1349D): as the sequence (P13569 whole entry G551D) above, with D551G, G1349D counted along it

For the compound `CC[C@H](C)[C@H](NC(=O)CN)C(=O)N[C@@H](Cc1ccccc1)C(=O)N[C@@H](CO)C(=O)N[C@@H](CCCCN)C(=O)N[C@@H](CC(C)C)C(=O)N[C@@H](C)C(=O)NC(C)(C)C(=O)N[C@@H](CCCCN)C(=O)N[C@@H](CCCCN)C(=O)N[C@H](C(=O)N[C@@H](CCCCN)C(=O)N[C@@H](CC(N)=O)C(=O)N[C@@H](CC(C)C)C(=O)N[C@@H](CC(C)C)C(=O)N[C@H](C(=O)N[C@@H](CO)C(=O)NCC(=O)N[C@@H](CC(C)C)C(=O)N[C@@H](CCCCN)C(=O)NCC(N)=O)[C@@H](C)CC)[C@@H](C)CC` [Esc_Aib-8, [Aib^8]-Esc(1–21)] (H-GIFSKLA[Aib]KKIKNLLISGLKG-NH2; N-terminus assumed), the “ability to inhibit bacterial growth, in words” value in [1] is “the most active one against Gram-negative bacteria”. For the same compound, the viable cells entry with F508del-CFBE41o- cells was “more than 90%”. Also, the “reduction in the number of lung bacterial cells (CFU)” value (“reduction in the number” below) in the series on P. aeruginosa PAO1 [2] is ~ 2 log10. In addition, the “lowering of lung bacterial burden (CFU)” value with P. aeruginosa PAO1 [3] was ~ 2 log10. Besides, the “efficacy in lowering lung bacterial load, comparison in words” value in the series on P. aeruginosa PAO1 [3] (0.1 mg/kg i.t., lungs at 24 h) is listed as “trend slightly stronger than that of Esc(1–21)−1c”. Further, in the series with P. aeruginosa PAO1 [4], the “reduction of bacterial load (ASL plus intracellular CFU)” value is roughly 2 log10-unit.
As for `O=c1ccn([C@@H]2O[C@H](COP(=O)(O)OP(=O)(O)OP(=O)(O)O)[C@@H](O)[C@H]2O)c(=O)[nH]1` [UTP], the “change in Fluo-4 fluorescence (intracellular calcium)” value in [5] was “marked and rapid increase in fluorescence”.
In the case of “GIFSKLAGKKIKNLLIEGLKG-NH2 [Esc-1C_DGlu-17, analog containing D-Glutamic acid at position 17]”, in [1], the “MIC increase versus reference Esc(1–21)−1c” value is on record as ~ 4 fold. Also, the “variation in CFTR-mediated conductance” value on G551D-CFTR and at G1349D-CFTR was “no variation in CFTR-mediated conductance” in each case.
For “GIFSKLAGKKIKNLLIEGLKG-NH2 [Esc_Glu-17, analog containing L-Glutamic acid at position 17]”, the “ability to inhibit bacterial growth, in words” value in series [1] is listed as “comparable to the reference Esc(1–21)−1c”. In addition, the “variation in CFTR-mediated conductance” value at G551D-CFTR and on G1349D-CFTR was “no variation in CFTR-mediated conductance” each time.
“GIFSKLAGKKIKNLLISGLKG-NH2 [Esc(1–21)−1c, diastereomer of Esc(1–21)]”: the “reduction in the number” value in the series with P. aeruginosa PAO1 [2] was ~ 2 log10. Besides, the “lowering of lung bacterial burden (CFU)” value with P. aeruginosa PAO1 [3] is ~ 2 log10. Also, the “effect on lung bacterial burden” value in the series with P. aeruginosa is on record as “reduce lung bacterial burden”.
On to “Gly-Ile-Phe-Ser-Lys-Leu-Ala-Gly-Lys-Lys-Ile-Lys-Asn-Leu-Leu-Ile-phosphoSer-Gly-Leu-Lys-Gly-NH2 [D-phosphoEsc, isoform carrying a D-leucine at position 14 and D-phosphoserine at position 17]”, for which the “CFTR-mediated conductance (∆G) relative to FSK alone” value at G551D-CFTR and at G1349D-CFTR was “at least 3 fold” each time.
Take colistin [reference compound]: the “reduction in the number” value in the series with P. aeruginosa PAO1 [2] is ~ 2 log10.
